According to patent EP0852142A1, “Diamines in the treatment of arrhythmia” (SMITHKLINE BEECHAM LABORATOIRES PHARMACEUTIQUES, priority 1992, dated 1993):
Where “and” joins values, the source holds several entries; their conditions need not be identical. Equal entries are not always repeated.

How the values were obtained:
anesthetized dog = experiment: Hemodynamic and electrocardiographic parameters in anesthetized dogs (before and during LCX occlusion/reperfusion); type: in vivo; conditions: for QTc: Bazett
Description: Surgical preparation. Dogs were anesthetized using 30 mg/kg i.v. sodium pentobarbital. […] A catheter was inserted into the right femoral artery to measure the systemic arterial pressure (Statham P23 ID, GOULD). A 5F Millar microtip catheter pressure transducer was inserted into the left carotid artery and advanced into the left ventricular lumen to measure the left ventricular pressure (LVP) and its first positive derivative dP/dt. Peripheral venous and arterial catheters were placed for drug administration and blood samples collection, respectively. Electrocardiographic variables were measured via a standard lead II ECG. For determination of the Q-T interval of ECG a CV5RL precordial lead of ECG was measured as previously described (Koerner et al.,J.,Cardiovascular Pharmacol. […] After a left thoracotomy through the fifth intercostal space, the heart was suspended in a pericardial cradle. The left circumflex coronary artery (LCX) was isolated close to its origin and a silk suture was placed around it for later occlusion. Experimental time course. After placement of the silk strand the animal was allowed to stabilize for at least 10 minutes. Arterial blood gases were determined (ABL500, Radiometer), and ventilation was adjusted to maintain these parameters within the normal range. Then, intravenous administration of the drug was performed in 10 minutes. After the drug administration, hemodynamic and ECG variables were again measured and the LCX was occluded for 45 minutes by placing a microclamp. Reperfusion performed by removing the clamp was continued for 5 hours. Arterial blood pressure and ECG were recorded continuously on a Gould polyrecorder. Signals were digitised by an A/D convertor and analysed on an IBM computer using an interactive software (Clodia, Clod sarl) and then transfered to a VAX 4000-200 computer (Digital Equipment Corporation, Maynard, MA) for further analysis. Heart rate was calculated from the ECG. […] QTc = (QT interval in msec) / (R-R interval in sec)^½.

[1] = tested on: Ischemia and reperfusion-induced arrhythmias; experiment: Ischemia and reperfusion-induced arrhythmias (ventricular fibrillation) in anesthetized dogs; type: in vivo, dog
Description: Surgical preparation. Dogs were anesthetized using 30 mg/kg i.v. sodium pentobarbital. […] A catheter was inserted into the right femoral artery to measure the systemic arterial pressure (Statham P23 ID, GOULD). A 5F Millar microtip catheter pressure transducer was inserted into the left carotid artery and advanced into the left ventricular lumen to measure the left ventricular pressure (LVP) and its first positive derivative dP/dt. Peripheral venous and arterial catheters were placed for drug administration and blood samples collection, respectively. Electrocardiographic variables were measured via a standard lead II ECG. […] After a left thoracotomy through the fifth intercostal space, the heart was suspended in a pericardial cradle. The left circumflex coronary artery (LCX) was isolated close to its origin and a silk suture was placed around it for later occlusion.
Experimental time course. After placement of the silk strand the animal was allowed to stabilize for at least 10 minutes. Arterial blood gases were determined (ABL500, Radiometer), and ventilation was adjusted to maintain these parameters within the normal range. Then, intravenous administration of the drug was performed in 10 minutes. After the drug administration, hemodynamic and ECG variables were again measured and the LCX was occluded for 45 minutes by placing a microclamp. Reperfusion performed by removing the clamp was continued for 5 hours.
Measurements. Ventricular arrhythmias were analyzed during the preischemic period, during ischemia and during the first hour of reperfusion. Ventricular premature beats (VPBs) were defined as identifiable premature QRS complexes and salvos as more than 2 consecutive VPBs. Ventricular tachycardia was defined as 4 or more consecutive VPBs. Ventricular fibrillation (VF) was diagnosed when total irregularity of rhythm occurred and when a rate could no longer be measured. If defibrillation was required a DC shock was given.

[2] = tested on: guinea pig papillary muscles; experiment: Electrophysiological studies: transmembrane action potentials of isolated papillary muscle; type: cell-based, Guinea pigs; conditions: for resting membrane potential, action potential amplitude, Vmax: even at the highest concentrations
Description: Guinea pigs (300-350 g) were anesthetized by intravenous injection of sodium pentobarbital (60 mg/kg). After thoracotomy the heart was rapidly excised and placed in oxygenated Tyrode solution. Papillary muscles were removed from the right ventricle. Preparations were then fixed to the silastic base of a 5 ml organ bath and superfused with oxygenated Tyrode solution maintained at 37 ± 1 °C.
The solution was equilibrated with a gas mixture of 95% O2 - 5% CO2.
After a stabilisation period (at least 1 h), transmembrane action potentials were recorded with conventional microelectrodes (10 MOhm) connected to a high input impedance amplifier (BIOLOGIC VF 180). External stimuli were delivered to the preparation with bipolar platinum electrodes placed at one end of the muscle. The pulse duration was 1 ms and the amplitude was twice threshold. The basic cycle length was 1000 ms (PULSAR 6i stimulator). The signals were monitored on a storage oscilloscope (GOULD 1602) and simultaneously recorded on a digital tape recorder (BIOLOGIC DTR 1200) for further analysis.
Measurements were made of resting membrane potential (RMP), action potential amplitude (APA) and action potential durations at 30, 50 and 90% repolarization (APD30, APD50 and APD90 respectively). Recordings were made after 30 min of equilibration for each concentration. Only recordings in which the same impalement was maintained throughout the entire experiment were used for analysis.

[3] = preischemic period, Compound I 0.3 and 1.0 mg/kg, d-sotalol 3.0 and 10.0 mg/kg

CC(C)NCC(O)c1ccc(NS(C)(=O)=O)cc1 (stereo not drawn) [d-Sotalol]
PR (anesthetized dog; 3.0 mg/kg i.v., After drug, before drug 105 ± 5): 118 ± 7 ms
QT (anesthetized dog; 3.0 mg/kg i.v., After drug, before drug 238 ± 11): 269 ± 12 ms
QTc (anesthetized dog; 3.0 mg/kg i.v., After drug, before drug 384 ± 8): 397 ± 11 msec/sec^½
PR (anesthetized dog; 3.0 mg/kg i.v., Ischemia (45 min), before drug 105 ± 5): 111 ± 7 ms
QT (anesthetized dog; 3.0 mg/kg i.v., Ischemia (45 min), before drug 238 ± 11): 264 ± 7 ms
QTc (anesthetized dog; 3.0 mg/kg i.v., Ischemia (45 min), before drug 384 ± 8): 400 ± 8 msec/sec^½
PR (anesthetized dog; 3.0 mg/kg i.v., reperfusion (60 min), before drug 105 ± 5): 112 ± 5 ms
QT (anesthetized dog; 3.0 mg/kg i.v., reperfusion (60 min), before drug 238 ± 11): 251 ± 11 ms
QTc (anesthetized dog; 3.0 mg/kg i.v., reperfusion (60 min), before drug 384 ± 8): 392 ± 16 msec/sec^½
PR (anesthetized dog; 10.0 mg/kg i.v., After drug, before drug 109 ± 5): 115 ± 5 ms
QT (anesthetized dog; 10.0 mg/kg i.v., After drug, before drug 251 ± 11): 337 ± 19 ms
QTc (anesthetized dog; 10.0 mg/kg i.v., After drug, before drug 386 ± 3): 440 ± 14 msec/sec^½
PR (anesthetized dog; 10.0 mg/kg i.v., Ischemia (45 min), before drug 109 ± 5): 113 ± 5 ms
QT (anesthetized dog; 10.0 mg/kg i.v., Ischemia (45 min), before drug 251 ± 11): 312 ± 14 ms
QTc (anesthetized dog; 10.0 mg/kg i.v., Ischemia (45 min), before drug 386 ± 3): 423 ± 10 msec/sec^½
PR (anesthetized dog; 10.0 mg/kg i.v., reperfusion (60 min), before drug 109 ± 5): 113 ± 6 ms
QT (anesthetized dog; 10.0 mg/kg i.v., reperfusion (60 min), before drug 251 ± 11): 285 ± 11 ms
QTc (anesthetized dog; 10.0 mg/kg i.v., reperfusion (60 min), before drug 386 ± 3): 400 ± 8 msec/sec^½
heart rate (anesthetized dog; [3]): reduced heart rate in a dose-dependent manner
left ventricular dP/dtmax (anesthetized dog; [3]): reduction in the left ventricular dP/dtmax
mean arterial and left ventricular pressure (anesthetized dog; [3]): only minimal changes
pressure rate product (anesthetized dog; [3]): reduced the pressure rate product
ventricular fibrillation during the ischemic period ([1]; 3.0 mg/kg): one dog
incidence of ventricular fibrillation ([1]; 10.0 mg/kg (only the high dose), ischemia and reperfusion): reduced the incidence of ventricular fibrillation
APA ([2]; 3 µM): 127 ± 1 mV
APD30 ([2]; 3 µM): 93 ± 5 ms
APD50 ([2]; 3 µM): 136 ± 5 ms
APD90 ([2]; 3 µM): 171 ± 5 ms
Overshoot ([2]; 3 µM): 33 ± 1 mV
RMP ([2]; 3 µM): -95 ± 1 mV
Vmax ([2]; 3 µM): 199 ± 30 V/sec
APA ([2]; 10 µM): 128 ± 1 mV
APD30 ([2]; 10 µM): 101 ± 8 ms
APD50 ([2]; 10 µM): 151 ± 7 ms
APD90 ([2]; 10 µM): 190 ± 7 ms
Overshoot ([2]; 10 µM): 34 ± 1 mV
RMP ([2]; 10 µM): -94 ± 1 mV
Vmax ([2]; 10 µM): 209 ± 32 V/sec
APA ([2]; 30 µM): 127 ± 1 mV
APD30 ([2]; 30 µM): 104 ± 7 ms
APD50 ([2]; 30 µM): 160 ± 6 ms
APD90 ([2]; 30 µM): 204 ± 6 ms
Overshoot ([2]; 30 µM): 33 ± 1 mV
RMP ([2]; 30 µM): -94 ± 1 mV
Vmax ([2]; 30 µM): 209 ± 32 V/sec
APA ([2]; 100 µM): 127 ± 1 mV
APD30 ([2]; 100 µM): 102 ± 7 ms
APD50 ([2]; 100 µM): 165 ± 6 ms
APD90 ([2]; 100 µM): 214 ± 7 ms
Overshoot ([2]; 100 µM): 32 ± 1 mV
RMP ([2]; 100 µM): -94 ± 1 mV
Vmax ([2]; 100 µM): 207 ± 34 V/sec
action potential duration ([2]; 3 to 100 µM): dose-dependent increase in action potential duration
resting membrane potential, action potential amplitude, Vmax [2]: did not change

COc1ccc(CCN(C)CCCN(C(=O)c2ccc([N+](=O)[O-])cc2)c2ccc(OC)c(OC)c2)cc1OC [Compound I, (N-[3,4-dimethoxy-phenyl]-N-3-[N'-2-(3,4-dimethoxyphenyl)-ethyl-N'-methylamino]propyl)-N'-4-nitrobenzamide]
PR (anesthetized dog; dog, in vivo): 112 ± 4 ms and 120 ± 6 ms and 115 ± 7 ms and 116 ± 3 ms and 113 ± 3 ms
heart rate (anesthetized dog; dog, in vivo): reduced heart rate in a dose-dependent manner
mean arterial and left ventricular pressure (anesthetized dog; dog, in vivo): only minimal changes
pressure rate product (anesthetized dog; dog, in vivo): reduced the pressure rate product
incidence of ventricular fibrillation ([1]; 0.3 mg/kg, 45 min ischemia and first 60 min of reperfusion, control dogs 66.7 %): 33.3%
incidence of ventricular fibrillation ([1]; 1.0 mg/kg, 45 min ischemia and first 60 min of reperfusion, control dogs 66.7 %, p <0.05): 14.3%
ventricular fibrillation during ischemia ([1]; 0.3 or 1.0 mg/kg, ischemic period): none of the dogs treated with Compound I experienced ventricular fibrillation during ischemia
Overshoot ([2]; 0.3 µM): 36 ± 1 mV
Vmax ([2]; 0.3 µM): 168 ± 14 V/sec
APD50 ([2]; 0.3 µM, action potential duration at 50 % of the repolarization): 162 ± 6 ms
RMP ([2]; 0.3 µM, resting membrane potential): -92 ± 1 mV
APD50 ([2]; 1 µM): 170 ± 5 ms
Overshoot ([2]; 1 µM): 35 ± 1 mV
RMP ([2]; 1 µM): -92 ± 1 mV
Vmax ([2]; 1 µM): 168 ± 14 V/sec
APD50 ([2]; 3 µM): 163 ± 5 ms
Overshoot ([2]; 3 µM): 34 ± 1 mV
RMP ([2]; 3 µM): -92 ± 1 mV
Vmax ([2]; 3 µM): 169 ± 14 V/sec
APD50 ([2]; 10 µM): 139 ± 6 ms
Overshoot ([2]; 10 µM): 33 ± 2 mV
RMP ([2]; 10 µM): -91 ± 1 mV
Vmax ([2]; 10 µM): 167 ± 15 V/sec
resting membrane potential, action potential amplitude, Vmax [2]: did not change
action potential duration ([2]; prolongation at 0.3 and 1 µM, no further increase at 3 µM, reduced at 10 µM): biphasic effect
